Assay results published in PubChem BioAssay (NCI).
“And” between values parts separate entries of the source, which are not always exact repeats. Equal values may be shown once.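 Each compound was tested at five concentrations against cells in 96-well plates for 48 hours. GI50 marks 50% less growth. TGI marks complete inhibition of growth.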

Tests used:
Test in all cases: NCI-60 cell line screen, 48 h
786-0 renal = system: 786-0 renal
A498 renal = system: A498 renal
A549 NSCLC = system: A549 NSCLC
ACHN renal = system: ACHN renal
BT-549 breast = system: BT-549 breast
CAKI-1 renal = system: CAKI-1 renal
CCRF-CEM leukemia = system: CCRF-CEM leukemia
EKVX NSCLC = system: EKVX NSCLC
HCC-2998 colon = system: HCC-2998 colon
HCT-15 colon = system: HCT-15 colon
HL-60(TB) leukemia = system: HL-60(TB) leukemia
HS 578T breast = system: HS 578T breast
HT29 colon = system: HT29 colon
IGROV1 ovarian = system: IGROV1 ovarian
K-562 leukemia = system: K-562 leukemia
KM12 colon = system: KM12 colon
LOX IMVI melanoma = system: LOX IMVI melanoma
M14 melanoma = system: M14 melanoma
MCF7 breast = system: MCF7 breast
MOLT-4 leukemia = system: MOLT-4 leukemia
NCI-H226 lung = system: NCI-H226 lung
NCI-H23 lung = system: NCI-H23 lung
NCI-H460 lung = system: NCI-H460 lung
NCI/ADR-RES ovarian = system: NCI/ADR-RES ovarian
OVCAR-3 ovarian = system: OVCAR-3 ovarian
OVCAR-4 ovarian = system: OVCAR-4 ovarian
OVCAR-5 ovarian = system: OVCAR-5 ovarian
OVCAR-8 ovarian = system: OVCAR-8 ovarian
PC-3 prostate = system: PC-3 prostate
RPMI-8226 leukemia = system: RPMI-8226 leukemia
RXF 393 renal = system: RXF 393 renal
SF-268 CNS = system: SF-268 CNS
SF-539 CNS = system: SF-539 CNS
SK-MEL-28 melanoma = system: SK-MEL-28 melanoma
SK-MEL-5 melanoma = system: SK-MEL-5 melanoma
SK-OV-3 ovarian = system: SK-OV-3 ovarian
SN12C renal = system: SN12C renal
SNB-19 CNS = system: SNB-19 CNS
SNB-75 CNS = system: SNB-75 CNS
SR leukemia = system: SR leukemia
SW-620 colon = system: SW-620 colon
TK-10 renal = system: TK-10 renal
U251 CNS = system: U251 CNS
UACC-62 melanoma = system: UACC-62 melanoma
UO-31 renal = system: UO-31 renal
COLO 205 colon = system: COLO 205 colon
DU-145 prostate = system: DU-145 prostate
HCT-116 colon = system: HCT-116 colon
HOP-62 NSCLC = system: HOP-62 NSCLC
HOP-92 NSCLC = system: HOP-92 NSCLC
MALME-3M melanoma = system: MALME-3M melanoma
MDA-MB-231 breast = system: MDA-MB-231 breast
MDA-MB-435 = system: MDA-MB-435
NCI-H522 lung = system: NCI-H522 lung
SF-295 CNS = system: SF-295 CNS
UACC-257 melanoma = system: UACC-257 melanoma
SK-MEL-2 melanoma = system: SK-MEL-2 melanoma
T-47D breast = system: T-47D breast

O=C1CCCC2=C1CC1=C(CCCC1=O)N2c1ccc([N+](=O)[O-])cc1
TGI (786-0 renal): > 100000 nM
TGI (A498 renal): > 100000 nM
TGI (A549 NSCLC): > 100000 nM
TGI (ACHN renal): > 100000 nM
TGI (BT-549 breast): > 100000 nM
TGI (CAKI-1 renal): > 100000 nM
TGI (CCRF-CEM leukemia): > 100000 nM
TGI (EKVX NSCLC): > 100000 nM
TGI (HCC-2998 colon): > 100000 nM
TGI (HCT-15 colon): > 100000 nM
TGI (HL-60(TB) leukemia): > 100000 nM
TGI (HS 578T breast): > 100000 nM
TGI (HT29 colon): > 100000 nM
TGI (IGROV1 ovarian): > 100000 nM
TGI (K-562 leukemia): > 100000 nM
TGI (KM12 colon): > 100000 nM
TGI (LOX IMVI melanoma): > 100000 nM
TGI (M14 melanoma): > 100000 nM
TGI (MCF7 breast): > 100000 nM
TGI (MOLT-4 leukemia): > 100000 nM
TGI (NCI-H226 lung): > 100000 nM
TGI (NCI-H23 lung): > 100000 nM
TGI (NCI-H460 lung): > 100000 nM
TGI (NCI/ADR-RES ovarian): > 100000 nM
TGI (OVCAR-3 ovarian): > 100000 nM
TGI (OVCAR-4 ovarian): > 100000 nM
TGI (OVCAR-5 ovarian): > 100000 nM
TGI (OVCAR-8 ovarian): > 100000 nM
TGI (PC-3 prostate): > 100000 nM
TGI (RPMI-8226 leukemia): > 100000 nM
TGI (RXF 393 renal): > 100000 nM
TGI (SF-268 CNS): > 100000 nM
TGI (SF-539 CNS): > 100000 nM
TGI (SK-MEL-28 melanoma): > 100000 nM
TGI (SK-MEL-5 melanoma): > 100000 nM
TGI (SK-OV-3 ovarian): > 100000 nM
TGI (SN12C renal): > 100000 nM
TGI (SNB-19 CNS): > 100000 nM
TGI (SNB-75 CNS): > 100000 nM
TGI (SR leukemia): > 100000 nM
TGI (SW-620 colon): > 100000 nM
TGI (TK-10 renal): > 100000 nM
TGI (U251 CNS): > 100000 nM
TGI (UACC-62 melanoma): > 100000 nM
TGI (UO-31 renal): > 100000 nM

COC(=O)[C@@H](C)C[C@H](Cc1ccccc1)NC(=O)c1csc([C@@H](C[C@H](C(C)C)N(C)C(=O)C2(NC(=O)[C@H]3CCCCN3C)CCC2)OC(C)=O)n1
TGI (786-0 renal): > 25000 nM
GI50 (A498 renal): 16.4 nM and 5.48 nM
TGI (A498 renal): 87.4 nM
GI50 (A549 NSCLC): 56.4 nM and 13.6 nM
TGI (A549 NSCLC): > 25000 nM
GI50 (ACHN renal): 24.9 nM and 19.3 nM
TGI (ACHN renal): > 25000 nM
GI50 (BT-549 breast): 2.5 nM
TGI (BT-549 breast): 15.7 nM
GI50 (CCRF-CEM leukemia): 5.33 nM and 2.5 nM
TGI (CCRF-CEM leukemia): > 25000 nM
GI50 (COLO 205 colon): 3.35 nM and 2.5 nM
TGI (COLO 205 colon): 120 nM and 18.2 nM
GI50 (DU-145 prostate): 3.51 nM and 2.5 nM
TGI (DU-145 prostate): > 25000 nM
TGI (EKVX NSCLC): > 25000 nM
GI50 (HCC-2998 colon): 5.01 nM and 6.28 nM
TGI (HCC-2998 colon): > 25000 nM
GI50 (HCT-116 colon): 4.47 nM and 2.5 nM
TGI (HCT-116 colon): 2520 nM
GI50 (HCT-15 colon): 94.4 nM and 66.5 nM
TGI (HCT-15 colon): > 25000 nM
GI50 (HL-60(TB) leukemia): 1.16 nM and < 2.5 nM
TGI (HL-60(TB) leukemia): 5.69 nM and < 2.5 nM
GI50 (HOP-62 NSCLC): 36.7 nM and 7.06 nM
TGI (HOP-62 NSCLC): > 25000 nM
GI50 (HOP-92 NSCLC): 0.886 nM and 2.5 nM
GI50 (HS 578T breast): 46.3 nM
GI50 (HT29 colon): 2.69 nM and 2.5 nM
TGI (HT29 colon): > 25000 nM
GI50 (IGROV1 ovarian): 0.863 nM and 2.5 nM
TGI (IGROV1 ovarian): > 25000 nM
GI50 (K-562 leukemia): 2.52 nM and 2.5 nM
TGI (K-562 leukemia): > 25000 nM
GI50 (KM12 colon): 3.19 nM and 5.22 nM
TGI (KM12 colon): > 25000 nM
GI50 (LOX IMVI melanoma): 7.71 nM and 2.5 nM
TGI (LOX IMVI melanoma): > 25000 nM
GI50 (M14 melanoma): 4.13 nM and 2.5 nM
TGI (M14 melanoma): 56.4 nM and 10.7 nM
GI50 (MALME-3M melanoma): 2.5 nM
TGI (MALME-3M melanoma): > 25000 nM
GI50 (MCF7 breast): 0.508 nM and 2.5 nM
TGI (MCF7 breast): > 25000 nM
GI50 (MDA-MB-231 breast): 5.84 nM and 2.5 nM
TGI (MDA-MB-231 breast): 152 nM
GI50 (MDA-MB-435): 0.325 nM and < 2.5 nM
TGI (MDA-MB-435): 1.79 nM and < 2.5 nM
GI50 (MOLT-4 leukemia): 10.7 nM and 7.14 nM
TGI (MOLT-4 leukemia): > 25000 nM
GI50 (NCI-H226 lung): 54.7 nM
TGI (NCI-H226 lung): > 25000 nM
GI50 (NCI-H23 lung): 7.79 nM and 8.92 nM
TGI (NCI-H23 lung): > 25000 nM
GI50 (NCI-H460 lung): 5.49 nM and 5.7 nM
TGI (NCI-H460 lung): > 25000 nM
GI50 (NCI-H522 lung): 1.65 nM
GI50 (NCI/ADR-RES ovarian): 16900 nM
TGI (NCI/ADR-RES ovarian): > 25000 nM
GI50 (OVCAR-3 ovarian): 0.487 nM and 2.5 nM
TGI (OVCAR-3 ovarian): 10.1 nM and 6.72 nM
TGI (OVCAR-4 ovarian): > 25000 nM
GI50 (OVCAR-5 ovarian): 78.6 nM and 9.9 nM
TGI (OVCAR-5 ovarian): > 25000 nM
GI50 (OVCAR-8 ovarian): 16.8 nM and 6.26 nM
TGI (OVCAR-8 ovarian): > 25000 nM
GI50 (PC-3 prostate): 4.06 nM and 2.5 nM
TGI (PC-3 prostate): > 25000 nM
GI50 (RPMI-8226 leukemia): 2.59 nM and 2.5 nM
TGI (RPMI-8226 leukemia): > 25000 nM
GI50 (SF-268 CNS): 6.61 nM and 17.5 nM
TGI (SF-268 CNS): > 25000 nM
GI50 (SF-295 CNS): 16.9 nM and 4.04 nM
TGI (SF-295 CNS): > 25000 nM
GI50 (SF-539 CNS): 7.84 nM and 4.41 nM
TGI (SF-539 CNS): 51.8 nM and 13.7 nM
GI50 (SK-MEL-28 melanoma): 30.7 nM and 6.67 nM
TGI (SK-MEL-28 melanoma): > 25000 nM
GI50 (SK-MEL-5 melanoma): 4.01 nM and 2.5 nM
TGI (SK-MEL-5 melanoma): 146 nM and 125 nM
GI50 (SK-OV-3 ovarian): 15.6 nM and 5.04 nM
TGI (SK-OV-3 ovarian): > 25000 nM
GI50 (SN12C renal): 8.7 nM and 17 nM
TGI (SN12C renal): > 25000 nM
GI50 (SNB-19 CNS): 7.08 nM
GI50 (SNB-75 CNS): 3.51 nM and 3.19 nM
TGI (SNB-75 CNS): > 25000 nM
GI50 (SR leukemia): 0.495 nM and 2.5 nM
TGI (SR leukemia): > 25000 nM
GI50 (SW-620 colon): 5.13 nM and 2.5 nM
TGI (SW-620 colon): > 25000 nM
TGI (TK-10 renal): > 25000 nM
GI50 (U251 CNS): 5.45 nM and 6.27 nM
TGI (U251 CNS): > 25000 nM
GI50 (UACC-257 melanoma): > 25000 nM
TGI (UACC-257 melanoma): > 25000 nM
GI50 (UACC-62 melanoma): 2.44 nM and 2.5 nM
TGI (UACC-62 melanoma): > 25000 nM
GI50 (UO-31 renal): 734 nM and 157 nM
TGI (UO-31 renal): > 25000 nM

COc1ccc(-c2coc3cc(O)cc(O)c3c2=O)cc1
TGI (786-0 renal): > 10000 nM
TGI (A549 NSCLC): > 10000 nM
TGI (ACHN renal): > 10000 nM
TGI (CAKI-1 renal): > 10000 nM
TGI (CCRF-CEM leukemia): > 10000 nM
TGI (COLO 205 colon): > 10000 nM
TGI (HL-60(TB) leukemia): > 10000 nM
TGI (HOP-62 NSCLC): > 10000 nM
TGI (IGROV1 ovarian): > 10000 nM
TGI (K-562 leukemia): > 10000 nM
TGI (M14 melanoma): > 10000 nM
TGI (MALME-3M melanoma): > 10000 nM
TGI (MCF7 breast): > 10000 nM
TGI (MDA-MB-435): > 10000 nM
TGI (MOLT-4 leukemia): > 10000 nM
TGI (NCI-H23 lung): > 10000 nM
TGI (NCI-H460 lung): > 10000 nM
TGI (NCI/ADR-RES ovarian): > 10000 nM
TGI (OVCAR-4 ovarian): > 10000 nM
TGI (OVCAR-5 ovarian): > 10000 nM
TGI (RPMI-8226 leukemia): > 10000 nM
TGI (RXF 393 renal): > 10000 nM
TGI (SF-268 CNS): > 10000 nM
TGI (SK-MEL-2 melanoma): > 10000 nM
TGI (SK-MEL-28 melanoma): > 10000 nM
TGI (SK-MEL-5 melanoma): > 10000 nM
TGI (SK-OV-3 ovarian): > 10000 nM
TGI (SNB-75 CNS): > 10000 nM
TGI (SR leukemia): > 10000 nM
TGI (SW-620 colon): > 10000 nM
TGI (T-47D breast): > 10000 nM
TGI (U251 CNS): > 10000 nM
TGI (UACC-62 melanoma): > 10000 nM
